# Source: patent US7491721B2, “Antimycobacterial pharmaceutical composition” (priority 2004, dated 2009)
# Columns and labels:
# [1] = system: sensitive strain of MTB; assay: Murine model of pulmonary tuberculosis, mice infected with sensitive strain; format: in vivo, Mycobacterium tuberculosis; details: for dose giving 2 log reduction in the organs: animals infected with sensitive strain
# [2] = Preliminary pharmacokinetics of compound of formula (I) in mice; details: mouse, in vivo
# Description: (§2) Preliminary Pharmacokinetics studies of the compound of formula (I) was performed in mice and dog to determine bioavailibility and serum levels achieved and maintained by the compounds.
# [3] = Acute toxicity by oral route in mice; details: mouse, in vivo
# Description: (§1) Acute toxicity of the compound of formula (I) was determined in rodents by oral route.
# [4] = Acute toxicity by oral route in rats; details: rat, in vivo
# Description: as §1
# [5] = system: bacterial strains used in the Ames Mutagenicity test; assay: Ames Mutagenicity test; format: cell-based; details: all the bacterial strains used
# [6] = in vivo; details: dog, po, 12.5 mg
# Description: as §2
# [7] = in vivo; details: mouse, po, 25 mg/kg
# [8] = Preliminary pharmacokinetics of compound of formula (I) in dog; details: serum, 12.5 mg
# Description: as §2
# [9] = Pharmacokinetics of the combination with rifampicin and pyrazinamide in mice; details: mouse, in vivo, po; for half-life: T½
# [10] = combination study, one month, doses mg/kg: (I) 25.0 where present, INH 25.0, RIF 20.0, PYR 150.0, ETH 100.0
# [11] = combination study, three months, doses mg/kg: (I) 25.0 where present, INH 25.0, RIF 20.0, PYR 150.0, ETH 100.0
# [12] = combination study, two months, doses mg/kg: (I) 25.0 where present, INH 25.0, RIF 20.0, PYR 150.0, ETH 100.0
# [13] = monotherapy 12.5 mg/kg, 8 Weeks Treatment (two months)
# [14] = monotherapy 12.5 mg/kg, 12 Weeks Treatment (three months)
# [15] = monotherapy 12.5 mg/kg, one month of treatment
# [16] = monotherapy 25 mg/kg, 8 Weeks Treatment (two months)
# [17] = monotherapy 25 mg/kg, 12 Weeks Treatment (three months)
# [18] = monotherapy 25 mg/kg, one month of treatment
# [19] = monotherapy 50 mg/kg, 8 Weeks Treatment (two months)
# [20] = monotherapy 50 mg/kg, 12 Weeks Treatment (three months)
# [21] = monotherapy 50 mg/kg, one month of treatment
# [22] = 12.5 mg/kg, (I) alone 12.5 mg/kg
# [23] = given together: (I) 12.5 + RIF 20.0 + PYR 150.0 mg/kg
# [24] = given together without (I): RIF 20.0 + PYR 150.0 mg/kg
smiles,measurement,setting,value
Cc1c(CN2CCN(c3cccc(C(F)(F)F)c3)CC2)cc(-c2ccccc2)n1NC(=O)c1ccncc1 [Compound of formula (I)],dose giving 2 log reduction in the organs,[1],12.5 mg/kg
same,"Mean Log10CFU in organs of mice infected with sensitive strain of MTB, Lung",[1]; [10],3.11 ± 0.38 Log10CFU
same,"Mean Log10CFU in organs of mice infected with sensitive strain of MTB, Spleen",[1]; [10],2.42 ± 0.4 Log10CFU
same,"Mean Log10CFU in organs of mice infected with sensitive strain of MTB, Lung",[1]; [11],0.82 ± 0.91 Log10CFU
same,"Mean Log10CFU in organs of mice infected with sensitive strain of MTB, Spleen",[1]; [11],1.09 ± 0.83 Log10CFU
same,"Mean Log10CFU in organs of mice infected with sensitive strain of MTB, Lung",[1]; [12],1.86 ± 0.94 Log10CFU
same,"Mean Log10CFU in organs of mice infected with sensitive strain of MTB, Spleen",[1]; [12],2.60 ± 0.45 Log10CFU
same,"Mean Log10CFU in organs of mice infected with sensitive strain of MTB, Lung",[1]; [13],3.44 ± 0.69 Log10CFU
same,"Mean Log10CFU in organs of mice infected with sensitive strain of MTB, Spleen",[1]; [13],2.75 ± 0.63 Log10CFU
same,"Mean Log10CFU in organs of mice infected with sensitive strain of MTB, Lung",[1]; [14],2.76 ± 0.53 Log10CFU
same,"Mean Log10CFU in organs of mice infected with sensitive strain of MTB, Spleen",[1]; [14],2.68 ± 0.27 Log10CFU
same,"Mean Log10CFU in organs of mice infected with sensitive strain of MTB, Lung",[1]; [15],2.5 ± 0.35 Log10CFU
same,"Mean Log10CFU in organs of mice infected with sensitive strain of MTB, Spleen",[1]; [15],2.89 ± 0.32 Log10CFU
same,"Mean Log10CFU in organs of mice infected with sensitive strain of MTB, Lung",[1]; [16],2.89 ± 0.73 Log10CFU
same,"Mean Log10CFU in organs of mice infected with sensitive strain of MTB, Spleen",[1]; [16],2.37 ± 0.68 Log10CFU
same,"Mean Log10CFU in organs of mice infected with sensitive strain of MTB, Lung",[1]; [17],1.71 ± 1.24 Log10CFU
same,"Mean Log10CFU in organs of mice infected with sensitive strain of MTB, Spleen",[1]; [17],1.63 ± 0.98 Log10CFU
same,"Mean Log10CFU in organs of mice infected with sensitive strain of MTB, Lung",[1]; [18],2.3 ± 0.63 Log10CFU
same,"Mean Log10CFU in organs of mice infected with sensitive strain of MTB, Spleen",[1]; [18],2.42 ± 0.15 Log10CFU
same,"Mean Log10CFU in organs of mice infected with sensitive strain of MTB, Lung",[1]; [19],2.20 ± 0.56 Log10CFU
same,"Mean Log10CFU in organs of mice infected with sensitive strain of MTB, Spleen",[1]; [19],2.17 ± 0.46 Log10CFU
same,"Mean Log10CFU in organs of mice infected with sensitive strain of MTB, Lung",[1]; [20],1.46 ± 1.06 Log10CFU
same,"Mean Log10CFU in organs of mice infected with sensitive strain of MTB, Spleen",[1]; [20],1.56 ± 1.12 Log10CFU
same,"Mean Log10CFU in organs of mice infected with sensitive strain of MTB, Lung",[1]; [21],2.1 ± 0.36 Log10CFU
same,"Mean Log10CFU in organs of mice infected with sensitive strain of MTB, Spleen",[1]; [21],2.28 ± 0.38 Log10CFU
same,AUC(0-t),"[2]; po, 25 mg",6880 ng·h/mL
same,Cmax,"[2]; po, 25 mg",2680 ng/mL
same,Tmax,"[2]; po, 25 mg",2 h
same,half-life,"[2]; po, 25 mg",3.41 h
same,AUC(0-t),"[2]; Mice, 12.5 mg (Oral), read-out: AUClast",2210 ng·h/mL
same,Cmax,"[2]; Mice, 12.5 mg (Oral), read-out: Cmax",660 ng/mL
same,half-life,"[2]; Mice, 12.5 mg (Oral), read-out: T1/2 (converted)",5.34 h
same,Tmax,"[2]; Mice, 12.5 mg (Oral), read-out: Tmax",1.5 h
same,LD50,[3],700 mg/kg
same,LD50,[4],793 mg/kg
same,mutagenicity in the Ames Mutagenicity test,[5],non mutagenic
same,half-life,[6],5.07 h
same,AUC,[7],6880 ng·h/mL
same,Cmax,[7],2680 ng/mL
same,Tmax,[7],2 h
same,half-life,[7],3.41 h
same,AUC(0-t),[8]; iv,20000 ng·h/mL
same,Cmax,[8]; iv,8650 ng/mL
same,Tmax,[8]; iv,3.48 h
same,AUC(0-t),[8]; po,10600 ng·h/mL
same,Cmax,[8]; po,3380 ng/mL
same,Tmax,[8]; po,0.75 h
same,bioavailability,[8]; po,56.4%
same,AUC,[9]; [22],2210 ng·h/mL
same,Cmax,[9]; [22],660 ng/mL
same,Tmax,[9]; [22],1.5 h
same,half-life,[9]; [22],5.34 h
same,AUC,[9]; [23],36500 ng·h/mL
same,Cmax,[9]; [23],7580 ng/mL
same,Tmax,[9]; [23],2.12 h
same,half-life,[9]; [23],6.73 h
NNC(=O)c1ccncc1 [Isoniazid],dose giving 2 log reduction in the organs,[1],≥ 25 mg/kg
same,"Mean Log10CFU in organs of mice infected with sensitive strain of MTB, Lung",[1]; [10],3.20 ± 0.45 Log10CFU
same,"Mean Log10CFU in organs of mice infected with sensitive strain of MTB, Spleen",[1]; [10],2.78 ± 0.30 Log10CFU
same,"Mean Log10CFU in organs of mice infected with sensitive strain of MTB, Lung",[1]; [11],1.20 ± 0.98 Log10CFU
same,"Mean Log10CFU in organs of mice infected with sensitive strain of MTB, Spleen",[1]; [11],1.35 ± 1.09 Log10CFU
same,"Mean Log10CFU in organs of mice infected with sensitive strain of MTB, Lung",[1]; [12],1.91 ± 0.9 Log10CFU
same,"Mean Log10CFU in organs of mice infected with sensitive strain of MTB, Spleen",[1]; [12],2.43 ± 0.39 Log10CFU
same,"Mean Log10CFU in organs of mice infected with sensitive strain of MTB, Lung",[1]; [13],3.9 ± 0.45 Log10CFU
same,"Mean Log10CFU in organs of mice infected with sensitive strain of MTB, Spleen",[1]; [13],3.73 ± 0.52 Log10CFU
same,"Mean Log10CFU in organs of mice infected with sensitive strain of MTB, Lung",[1]; [14],3.94 ± 0.28 Log10CFU
same,"Mean Log10CFU in organs of mice infected with sensitive strain of MTB, Spleen",[1]; [14],3.9 ± 0.37 Log10CFU
same,"Mean Log10CFU in organs of mice infected with sensitive strain of MTB, Lung",[1]; [15],4.56 ± 0.24 Log10CFU
same,"Mean Log10CFU in organs of mice infected with sensitive strain of MTB, Spleen",[1]; [15],4.93 ± 0.42 Log10CFU
same,"Mean Log10CFU in organs of mice infected with sensitive strain of MTB, Lung",[1]; [16],3.01 ± 0.68 Log10CFU
same,"Mean Log10CFU in organs of mice infected with sensitive strain of MTB, Spleen",[1]; [16],2.68 ± 0.89 Log10CFU
same,"Mean Log10CFU in organs of mice infected with sensitive strain of MTB, Lung",[1]; [17],3.06 ± 0.83 Log10CFU
same,"Mean Log10CFU in organs of mice infected with sensitive strain of MTB, Spleen",[1]; [17],2.41 ± 0.69 Log10CFU
same,"Mean Log10CFU in organs of mice infected with sensitive strain of MTB, Lung",[1]; [18],3.19 ± 0.6 Log10CFU
same,"Mean Log10CFU in organs of mice infected with sensitive strain of MTB, Spleen",[1]; [18],3.08 ± 0.44 Log10CFU
same,"Mean Log10CFU in organs of mice infected with sensitive strain of MTB, Lung",[1]; [19],2.45 ± 0.60 Log10CFU
same,"Mean Log10CFU in organs of mice infected with sensitive strain of MTB, Spleen",[1]; [19],2.30 ± 0.38 Log10CFU
same,"Mean Log10CFU in organs of mice infected with sensitive strain of MTB, Lung",[1]; [20],2.07 ± 0.33 Log10CFU
same,"Mean Log10CFU in organs of mice infected with sensitive strain of MTB, Spleen",[1]; [20],2.68 ± 0.36 Log10CFU
same,"Mean Log10CFU in organs of mice infected with sensitive strain of MTB, Lung",[1]; [21],2.97 ± 0.46 Log10CFU
same,"Mean Log10CFU in organs of mice infected with sensitive strain of MTB, Spleen",[1]; [21],2.89 ± 0.27 Log10CFU
"NC(=O)c1cnccn1 [PYR, Pyrazinamide]",AUC,[9]; [24],649000 ng·h/mL
same,AUC,[9]; [23],477000 ng·h/mL
same,Cmax,[9]; [24],138000 ng/mL
same,Cmax,[9]; [23],146000 ng/mL
same,Tmax,[9]; [24],1.5 h
same,Tmax,[9]; [23],1 h
same,half-life,[9]; [24],2.09 h
same,half-life,[9]; [23],2.05 h
CO[C@H]1/C=C/O[C@@]2(C)Oc3c(C)c(O)c4c(O)c(c(/C=N/N5CCN(C)CC5)c(O)c4c3C2=O)NC(=O)/C(C)=C\C=C\[C@H](C)[C@H](O)[C@@H](C)[C@@H](O)[C@@H](C)[C@H](OC(C)=O)[C@@H]1C [Rifampicin],"Mean Log10CFU in organs of mice infected with sensitive strain of MTB, Lung",[1]; [10],2.75 ± 0.36 Log10CFU
same,"Mean Log10CFU in organs of mice infected with sensitive strain of MTB, Spleen",[1]; [10],2.78 ± 0.42 Log10CFU
same,"Mean Log10CFU in organs of mice infected with sensitive strain of MTB, Lung",[1]; [11],0.84 ± 1.10 Log10CFU
same,"Mean Log10CFU in organs of mice infected with sensitive strain of MTB, Spleen",[1]; [11],1.21 ± 0.83 Log10CFU
same,"Mean Log10CFU in organs of mice infected with sensitive strain of MTB, Lung",[1]; [12],1.84 ± 0.95 Log10CFU
same,"Mean Log10CFU in organs of mice infected with sensitive strain of MTB, Spleen",[1]; [12],2.40 ± 0.7 Log10CFU
same,AUC,[9]; [24],148000 ng·h/mL
same,AUC,[9]; [23],195000 ng·h/mL
same,Cmax,[9]; [24],15200 ng/mL
same,Cmax,[9]; [23],19300 ng/mL
same,Tmax,[9]; [24],2.3 h
same,Tmax,[9]; [23],3.25 h
